Data taken from patent US11471463B2, “Enhancers of cellular cannibalism for use to sensitize tumors to radiation therapy” (Institut Gustave-Roussy, priority 2017, dated 2022).
Entries after “also recorded” stand apart in the source; their conditions may differ. Structures can show the parent of a compound that is named as a salt.

Legend:
[1] = tested on: HCT116 cells; assay: Screening for enhancers of IR-mediated cellular cannibalism (imaging flow cytometry, confocal microscopy validation); type: cell-based, human; conditions: 8 Gray, 10 μM compound, 24 hours of culture
Experimental: FIG. 4 Identification of cannibalism modulators triggered by ionizing radiation. Compounds from the Prestwick (A) and CEA (F) libraries were tested for their capacities to induce cellular cannibalism after ionizing radiation. Cannibal cells were detected after homotypic cultures of 8 gray γ-irradiation HCT116 cells in the presence or absence of […] of the Prestwick (A) and CEA […] library compounds. Each dot represents one compound. Representative images are shown in (B, G). (C, H) HCT116 cells were treated with the indicated drugs. After 24 h of treatment, cell death was monitored by staining with 3,3 dihexyloxacarbocyanine iodide (DiOC6(3)) and PI, and the percentage of dying (DiOC6(3)^low PI^−, open bars) and dead (DiOC6(3)^low PI^+, closed bars) cells was determined by cytofluorometry. Validation of the cannibalism inducers by fluorescent microscopy. Representative images (D, I) and quantification (E, J) are shown. Results are means±s.e.m. of triplicate determinations.
Then, the screening of a library of chemical compounds was developed in order to identify compounds able to induce IR-mediated cellular cannibalism. Thus, HCT116 cells that have been treated with a radiation dose of 8 Gray were stained either with orange CMTMR cell tracker or green CMFDA cell tracker and cultivated in presence of 10 μM of chemical compounds. After 24 hours of culture, cells have been stained with nuclear dye (5 μg/ml of Hoechst 33342 during 1 h at 37° C.) and analyzed using the FlowSight® Imaging Flow Cytometer for cellular cannibalism. Each of these compounds were classified according to their Z-score^47 and identified respectively 13 and 11 candidate compounds (FIGS. 4A, 4B, 4F and 4G). Then, the identified compounds were validated by combining flow cytometry approaches (in order to eliminate cytotoxic compounds by simultaneously monitoring the depolarization of the internal mitochondrial membrane and the plasma membrane permeability of the treated cells) with confocal microscopy approaches (to confirm the modulation of IR-induced cellular cannibalism by candidate compounds) (FIGS. 4C-E and 4H-J). […] Finally, 16 chemical compounds that are able to enhance the capacity of IR to trigger cellular cannibalism were identified (FIGS. 4E and 4J, Tables 1&2).

[2] = tested on: CT26 cells; assay: Anti-tumor vaccination assay, treated CT26 cells inoculated into BALB/c mice and rechallenge; type: in vivo, mouse; conditions: for Frequency of mice showing a protective response: 8 Gy in presence of 10 μM compound for 24 hours; for Protective response after injection of cancer cells, compound alone: CT26 cells treated with 10 μM compound alone (no IR)
Experimental: FIG. 5. Identification of cannibalism modulators as immunogenic cell death inducers. MCA205 (A) or CT26 (E, I, M, Q) cells were treated with the indicated drugs. After 24 h of coculture with the indicated treatment, cell death was monitored by staining DiOC6(3) and PI, and the percentage of dying (DiOC6(3)^low PI^−, open bars) and dead (DiOC6(3)^low PI^+, closed bars) cells was determined by cytofluorometry. (B-D) MCA205 cells or (F-H, J-L, N-P, R-T) CT26 cells cocultured after x irradiation with the indicated compounds were inoculated subcutaneously into the right flank of […] or BALB/c mice, respectively. Seven days later, the mice were rechallenged with live cells injected into the opposite flank, and tumor growth was monitored (five mice per group).
FIG. 6. Tumor vaccination experiments. CT26 cells were treated for 24 hours with 10 μM VP331 (A, F, K), 10 μM Minaprine (B, G, L), 10 μM Lopa87 (C, H, M), 10 μM SG6163F (D, I, N), 10 μM Azaguanine-8 (8-aza) (E, J, O) alone or combined with 8 Gy ionizing radiation and inoculated (s.c.) into immunocompetent BALB/c mice, which were rechallenged at the opposite flank 7 days later with the same cancer cells. The percentage of tumor-free mice was evaluated three times a week for the following 38 days. Percentage of total tumor free mice (A-E), tumor free-mice at the first injection site (F to J, P) or at the second injection site (K to O, Q) are shown. (*P<0.05, **P<0.01, ***P<0.001, two-way ANOVA).
Considering that immunogenic cell death (ICD) inducers were identified (such as Digoxin, Digitoxin, Lanatoside C or Doxorubicin hydrochloride)^3, 4, 48-51) as IRCCE, the ability of these compounds to induce an antitumor immunity after radiotherapy was evaluated. First, a preclinical approaches was developed to study the immunological effects of IRCCE on two mouse models of carcinoma (colon CT26 carcinoma and fibrosarcoma MCA205). Initially, the ability of the combination of IRCCE+IR to trigger a specific anti-tumor immune response was appreciated using immunocompetent mice through anti-tumor vaccination assays. According to previously published studies^52, the injection of cancer cells succumbing to an immunogenic cell death (ICD) into immunocompetent mice must elicit a protective immune response that is specific for tumor antigens. Thus, 3×10^5 MCA205 cells were first treated with 10 μM of SG6163F for 24 hours. Then, treated cells were inoculated subcutaneously in 200 μl PBS into the lower flank of 8-week-old female C57BL/6 mice. One week later, 3×10^4 untreated control cells were inoculated into the contralateral flank of mice. Tumors were evaluated weekly using a common caliper. Animals bearing tumors that exceeded 20-25% body mass were euthanatized. […] Then, 3×10^6 CT26 cells were irradiated with 8 Gy in presence of 10 μM of SG6163F (FIGS. 5E and 5F), VP331 (FIGS. 5I and 5J), Minaprine dihydrochloride (FIGS. 5M and 5N) or LOPA87 (FIGS. 5Q and 5R) for 24 hours. Then, cells were inoculated as previously described subcutaneously in 200 μl PBS into the lower flank of 8-week-old female BALB/c mice. One week later, 5×10^5 untreated control cells were inoculated into the contralateral flank of mice and tumors were evaluated weekly using a common caliper. As previously mentioned, animals bearing tumors that exceeded 20-25% body mass were euthanatized. The percentage of dying cells in each condition was evaluated by determining with DiOC(6)3/IP staining (FIGS. 5E, 5I, 5M and 5Q). Finally, the ability of these compounds to repress the growth of cancer cells that have been injected 7 days after injection of irradiated and treated cancer cells was appreciated.
A second anti-tumor vaccination assay was done on CT26 mouse models of carcinoma as previously described. […]

[3] = first assay: CT26 cells, rechallenge one week later
[4] = second assay: CT26 cells, rechallenge 7 days later

Compound	Enhancement of IR-mediated cellular cannibalism (IRCCE) [1]	other results
CC(C(=O)O)c1ccc(-c2ccccc2)c(F)c1 (stereo not drawn) [Flurbiprofen]	efficient cellular cannibalism enhancer	
COc1ccc(C)cc1/C=N/[C@@H]1C[C@@H]2C[C@H]([C@H]1C)C2(C)C [VP331]	efficient cellular cannibalism enhancer	Frequency of mice showing a protective response [2, 3]: significant increase in the frequency of mice showing a protective response; Frequency of mice showing a protective response [2, 4]: Significant increases in the frequency of mice showing a protective response
CN1CCc2c(c3ccccc3n2Cc2ccccc2)C1 [Mebhydroline 1,5-napthalene disulfonate salt]	efficient cellular cannibalism enhancer	
CN(C)c1ccc(-c2cc(=O)[nH]c(-c3ccccc3)n2)cc1 [LOPA87]	efficient cellular cannibalism enhancer	Frequency of mice showing a protective response [2, 3]: significant increase in the frequency of mice showing a protective response; Frequency of mice showing a protective response [2, 4]: Significant increases in the frequency of mice showing a protective response
COC(=O)Nc1nc2ccc(Sc3ccccc3)cc2[nH]1 [Fenbendazol]	no effect	
CCOC(=O)n1ccn(C)c1=S [Carbimazole]	no effect	
CN1c2ccccc2C(=O)N(c2ccccc2)C1c1ccc(-c2csc(CO)c2)s1 (stereo not drawn) [VP43]	efficient cellular cannibalism enhancer	
Cc1cc(-c2ccccc2)nnc1NCCN1CCOCC1.Cl.Cl [Minaprine dihydrochloride]	efficient cellular cannibalism enhancer	Protective response after injection of cancer cells, compound alone ([2]; dihydrochloride): induce an increase of protective response; also recorded: intrinsic protective effects against tumor development; Frequency of mice showing a protective response [2, 3]: significant increase in the frequency of mice showing a protective response; Frequency of mice showing a protective response [2, 4]: Significant increases in the frequency of mice showing a protective response
COc1cccc2c1C(=O)c1c(O)c3c(c(O)c1C2=O)C[C@@](O)(C(=O)CO)C[C@@H]3O[C@H]1C[C@H](N)[C@H](O)[C@H](C)O1.Cl [Doxorubicine hydrochloride, Doxorubicin hydrochloride]		Enhancement of IR-mediated cellular cannibalism (IRCCE) ([1]; hydrochloride): efficient cellular cannibalism enhancer; Enhancement of IR-mediated cellular cannibalism (IRCCE) ([1]; listed as Doxorubicin hydrochloride, hydrochloride): IRCCE
COc1cc(O)ccc1/C=N/c1ccccc1C(=O)Nc1ccccc1 [RN-1-026]	efficient cellular cannibalism enhancer	
Nc1nc2[nH]nnc2c(=O)[nH]1 [8-Azaguanine]	efficient cellular cannibalism enhancer	Protective response after injection of cancer cells, compound alone [2]: induce an increase of protective response; Frequency of mice showing a protective response [2, 4]: Significant increases in the frequency of mice showing a protective response
O=C(N/N=C/c1ncc[nH]1)NC12CC3CC(CC(C3)C1)C2 [VP450]	efficient cellular cannibalism enhancer	
CC(=O)O[C@H]1C[C@H](O[C@H]2[C@@H](O)C[C@H](O[C@H]3[C@@H](O)C[C@H](O[C@H]4CC[C@@]5(C)[C@H](CC[C@@H]6[C@@H]5C[C@@H](O)[C@]5(C)[C@@H](C7=CC(=O)OC7)CC[C@]65O)C4)O[C@@H]3C)O[C@@H]2C)O[C@H](C)[C@H]1O[C@@H]1O[C@H](CO)[C@@H](O)[C@H](O)[C@H]1O [Lanatoside, Lanatoside C]	efficient cellular cannibalism enhancer	Enhancement of IR-mediated cellular cannibalism (IRCCE) ([1]; listed as Lanatoside C): IRCCE
Myricetin	efficient cellular cannibalism enhancer	
C[C@H]1O[C@@H](O[C@H]2[C@@H](O)C[C@H](O[C@H]3[C@@H](O)C[C@H](O[C@H]4CC[C@@]5(C)[C@H](CC[C@@H]6[C@@H]5C[C@@H](O)[C@]5(C)[C@@H](C7=CC(=O)OC7)CC[C@]65O)C4)O[C@@H]3C)O[C@@H]2C)C[C@H](O)[C@@H]1O [Digoxin]	IRCCE; also recorded: efficient cellular cannibalism enhancer	
C[C@H]1O[C@@H](O[C@H]2[C@@H](O)C[C@H](O[C@H]3[C@@H](O)C[C@H](O[C@H]4CC[C@@]5(C)[C@H](CC[C@@H]6[C@@H]5CC[C@]5(C)[C@@H](C7=CC(=O)OC7)CC[C@]65O)C4)O[C@@H]3C)O[C@@H]2C)C[C@H](O)[C@@H]1O [Digitoxin]	IRCCE; also recorded: efficient cellular cannibalism enhancer	
